Results taken from patent US7915227B2, “Pharmaceutical formulations employing short-chain sphingolipids and their use” (Het Nederlands Kanker Instituut, priority 2003, dated 2011).

Assays:
[1] = system: BAEC; assay: Doxorubicin uptake by cultured BAEC; format: cell-based; settings: lipid 10 μM, doxorubicin 50 μM simultaneously, 60 minutes, uptake in the absence of lipid = 100%
Protocol: A range of glycosphingolipids and sphingomyelins having different structures were also studied. The data are summarised in the following tables, and are expressed as a percentage (+/−SD) of doxorubicin uptake by cultured BAEC, as compared to drug uptake in the absence of lipid. Glycosphingolipids and sphingomyelins were used at 10 μM. Doxorubicin was administered simultaneously at 50 μM. After 60 minutes, cells were washed and cellular doxorubicin contents were determined fluorimetrically. Background fluorescence was subtracted from all values and all data were corrected for protein contents. Each data point is the average value of at least three independent experiments, but some lipids were assayed in 10 or more independent experiments. For each experiment 4, 6 or 8 wells with cells were treated identically and the data were then averaged (=1 experiment).

[2] = system: A431 cells; assay: Cellular doxorubicin uptake; format: cell-based, human; settings: 15 μM co-administered lipid, within an hour, control conditions = 100%
Protocol: A431 (adherent human epidermoid carcinoma cells) were cultured in Dulbecco's modified Eagle medium (DMEM), supplemented with 10% (v/v) fetal calf serum, 100 units/ml penicillin, 100 μg/ml streptomycin and 4 mM L-glutamine. Cells were sub-cultured once a week by trypsinization and maintained in a water-saturated atmosphere of 5% CO2 at 37° C. All studies were performed at a confluency of 80-90%.
For cellular doxorubicin accumulation measurements, A431 cells were cultured in flat-bottom 96-well plates. At confluency, cells were changed to serum-free medium and exposed to 50 μM free or to 20 μM liposomal doxorubicin. After extensive washing, cells were lysed in 100 μl of 1% (w/v) Triton X-100. Native fluorescence intensities were then measured by a Perkin Elmer Victor Wallac II fluorescence microplate reader, using 485 nm and 535 nm filters for excitation and emission, respectively. All values were corrected for background fluorescence. Cellular doxorubicin contents were calculated with the aid of standard amounts, and corrected for differences in protein content, as determined with the BCA assay (see, e.g., Smith et al., 1985).

[3] = system: A431 cells; assay: Cell viability (MTT assay); format: cell-based, human; settings: for viability after 24 hour exposure: 24 hour exposure to 20 μM lipid
Protocol: For viability assessment, A431 cells were cultured in flat-bottom 96-well plates. After experimental treatments, 100 μg of the mitochondrial dehydrogenase substrate MTT was added to each well (see, e.g., Carmichael et al., 1987). Cells were then incubated for 60 minutes at 37° C. After centrifugation (3000 rpm, 10 minutes at 4° C.) supernatants were removed. The precipitated blue formazan products were then dissolved in 100 μl DMSO, and absorbencies were read in a Bio-Tek Instruments EL 340 photospectrometric microplate reader at 540 nm. Background absorbencies were subtracted and values from wells containing untreated control cells were set at 100% viability.

[4] = system: A431 cells; assay: Membrane leakage assay (LDH release); format: cell-based, human; settings: for LDH release: 100 μM lipid
Protocol: To investigate (loss of) plasma membrane integrity, the release of the cytosolic enzyme LDH into phenol red-free cell culture medium was monitored. Flat-bottom 96-well plates containing (liposome-treated) A431 cells were centrifuged (2000 rpm, 5 minutes at 20° C.) and 50 μl aliquots of the supernatants were assessed for LDH activity with the CytoTox 96 kit, according the manufacturer's instructions. Values obtained from cells that were lysed in 0.8% Triton X-100 served as positive control. All data were corrected for protein contents, as determined with the BCA assay (see, e.g., Smith et al., 1985).

Q: For `CCCCCCCCCCCCC/C=C/[C@@H](OC)[C@H](COP(=O)([O-])OCC[N+](C)(C)C)NC(=O)CCCCCCC` [3-O-methyl-C8-SM], which “doxorubicin uptake, mean % ± SD (sphingomyelins)” value [1] is on record?
A: 249.8 ± 36.5%

Q: Which “doxorubicin uptake, mean % ± SD (glycosphingolipids)” value [1] does the source give for `CCCCCCCCCCCCC/C=C/[C@@H](O)[C@@H](N)CO[C@@H]1O[C@H](CO)[C@H](O)[C@H](O)[C@H]1O` [C0-GalCer] here?
A: 98.2 ± 9.3%

Q: How did the “doxorubicin uptake, mean % ± SD (glycosphingolipids)” value [1] turn out when `CCCCCCCCCCCCC/C=C/[C@@H](O)[C@@H](N)CO[C@@H]1O[C@H](CO)[C@@H](O)[C@H](O)[C@H]1O` [C0-GlcCer] was run?
A: 86.7 ± 16.2%

Q: With `CCCCCCCCCCCCC/C=C/[C@@H](O)C(N)CO[C@H]1O[C@H](CO)[C@@H](O[C@@H]2O[C@H](CO)[C@H](O)[C@H](O)[C@H]2O)[C@H](O)[C@@H]1O` (stereo partly drawn) [C0-LacCer] as the compound, how does the “doxorubicin uptake, mean % ± SD (glycosphingolipids)” value [1] read?
A: 93.8 ± 4.0%

Q: How did the “doxorubicin uptake, mean % ± SD (sphingomyelins)” value [1] turn out when `CCCCCCCCCCCCC/C=C/[C@@H](O)[C@@H](N)COP(=O)([O-])OCC[N+](C)(C)C` [C0-SM (SPC)] was run?
A: 128.3 ± 19.5%

Q: With `CCCCCCCCCCCCC/C=C/[C@@H](O)[C@H](CO)NC(=O)CCCCC` [C6-Cer] as the compound, how does the “doxorubicin uptake, mean % ± SD (sphingomyelins)” value [1] read?
A: 96.6 ± 17.3%

Q: `CCCCCCCCCCCCC/C=C/[C@@H](O)[C@H](COP(=O)([O-])OCC[N+](C)(C)C)NC(=O)CCCCC` [C6-SM, N-hexanoyl-sphingomyelin] was tested. Which “uptake of free doxorubicin” value [2] did it give?
A: 461.8±126.9%

Q: And the “viability after 24 hour exposure” value [3]?
A: 29.3±5.5%

Q: And the viable cells ([3]; determined 24 hours after a 1 hour incubation with 10 μM lipid)?
A: 95.6±19.1%

Q: And the “doxorubicin uptake, mean % ± SD (sphingomyelins)” value [1]?
A: 330.6 ± 92.3%

Q: And the LDH release [4]?
A: 53.9±7.9%

Q: What about the “LDH release (of total LDH activity)” value ([4]; 1 hour incubation with 10 μM lipid, 0.8% Triton X-100 = 100%) of the same compound?
A: 0.5±0.5%

Q: `CCCCCCCCCCCCC/C=C/[C@@H](O)[C@H](COP(=O)(O)O)NC(=O)CCCCCCC` [C8-Cer-1-P] was tested. Which “doxorubicin uptake, mean % ± SD (sphingomyelins)” value [1] did it give?
A: 122.2 ± 7.2%

Q: For `CCCCCCCCCCCCCC=CC(O)C(COC1OC(CO)C(O)C(O)C1O)NC(=O)CCCCCCC` (stereo not drawn) [C8-GalCer], which “doxorubicin uptake, mean % ± SD (glycosphingolipids)” value [1] is on record?
A: 213.7 ± 31.1%

Q: Which “uptake of free doxorubicin” value [2] does the source give for `CCCCCCCCCCCCC/C=C/[C@@H](O)[C@H](COC1OC(CO)C(O)C(O)C1O)NC(=O)CCCCCCC` (stereo partly drawn) [C8-GlcCer, N-octanoyl-glucosylceramide] here?
A: 271.7±58.5%

Q: What about the “viability after 24 hour exposure” value [3] of the same compound?
A: 71.3±5.3%

Q: And the “doxorubicin uptake, mean % ± SD (glycosphingolipids)” value [1]?
A: 335.8 ± 88.5%

Q: What about the LDH release [4] of the same compound?
A: 0.0±0.6%

Q: With `CCCCCCCCCCCCCC=CC(O)C(COC1OC(CO)C(OC2OC(CO)C(O)C(O)C2O)C(O)C1O)NC(=O)CCCCCCC` (stereo not drawn) [C8-LacCer] as the compound, how does the “doxorubicin uptake, mean % ± SD (glycosphingolipids)” value [1] read?
A: 301.5 ± 41.2%

Q: For `CCCCCCCCCCCCCC=CC(O)C(COC1OC(CO)C(O)C(O)C1O)NC(=O)CCCCCCCCCCC` (stereo not drawn) [C12-GlcCer], which “doxorubicin uptake, mean % ± SD (glycosphingolipids)” value [1] is on record?
A: 85.6 ± 12.0%

Q: `CCCCCCCCCCCCC/C=C/[C@@H](O)[C@@H](N)CO` [sphingosine, (2S,3R,4E)-2-amino-4-octadecene-1,3-diol] was tested. Which “doxorubicin uptake, mean % ± SD (sphingomyelins)” value [1] did it give?
A: 100.4 ± 20.3%
